# In US20230381378A1, “METHODS AND COMPOSITIONS FOR THE TREATMENT OF IMPLANT ASSOCIATED COMPLICATIONS” (The Board of Trustees of the Leland Stanford Junior …, priority 2020, published 2023):
# Biological target: T1, Rac2 (Mus musculus, UniProt Q05144)
# T1 construct: reduced the expression of immune cell-specific Rac2 in the FBR capsules by about 80%; from tissue; host or cells: FBR capsule tissue around mechanically stimulating implants in C57/BL6 wild-type mice (Jackson labs Stock No: 000664)
# Assay: Rac inhibition in the mechanically stimulating implant (MSI) mouse model of foreign body response
# Assay type: in vivo
# Conditions: C57/BL6 wildtype mice
# Source text: Implantation Experiments. Standard silicone implants and MS's were implanted in C57/BL6 mice for either 2 weeks or 1 month. A 2 cm incision was made on the dorsum of the mouse and a subcutaneous pocket was created. Control implants were placed in the subcutaneous pocket and the incision was closed using 6-0 nylon suture or staples. For vibration-enabled implants, the implants were placed into a subcutaneous pocket, similar to the procedure described above and wires were guided through the skin using a modified seldinger technique. 3V batteries with an amplitude of 1.38 G and a frequency of 203 Hz were used to mimic human conditions. MS's were vibrated for 1 hour daily from day 4 (D4) post implantation to day 11 (D11). This time period was chosen based on previous studies, showing that increased mechanical stress during this period effectively induces fibrosis.
# Histology and Trichrome staining. At each timepoint, the mice were euthanized, and the implants were resected en bloc with the surrounding scar tissue. The implants were removed and the scar tissue along with the skin was fixed in 4% paraformaldehyde overnight and embedded in paraffin. Scar tissue and implants from humans were collected from patients and processed within an hour. For analysis of the capsule, paraffin sections were stained with trichrome (SigmaAldrich) as described previously. Imaging was performed on a Leica DM5000 B upright microscope. Image analysis software (Image J) was used to quantify collagen staining.
# Immunostaining. Immunohistological staining was performed on paraffin sections as described previously. Briefly, heat-based antigen retrieval was followed by blocking with 5% goat serum in PBS. The following primary antibodies were used at a 1:200 dilution (as recommended by the manufacturer) and incubated overnight at 4° C.: anti-a-SMA (Abcam ab5694) or anti-Rac2 (Fischer Scientific, DF6273). Incubation of primary antibody-stained specimens with Alexa Fluor 488 secondary antibody (Thermo Fisher Scientific) was performed at a 1:400 dilution for 1 hour at room temperature. Sections were subsequently mounted using Fluoroshield (F6057, Sigma, Saint Louis, MO) with 4′, 6-diamidino-2-phenylindole (DAPI) to stain cell nuclei. Imaging was performed on a Leica DM5000 B upright microscope. Image analysis was performed using Matlab.
# Rac Inhibition Experiments. EHT 1864 2HCl, a potent Rac family GTPase inhibitor, was acquired from Selleckchem (Houston, TX). MS's were implanted in C57/BL6 wildtype mice for 28 days utilizing the modified Seldinger technique described above. Mice were injected with EHT 1864 2HCl (10 mg/kg/day) (n=4) or saline (n=4) from Days 0-26. FBR capsule tissue was explanted on day 28 and processed for histologic analysis.
# Statistical Analyses. Results are presented as mean±SEM. Standard data analysis was performed using student's ttests. ANOVA with posthoc tukey's test was used for multiple comparisons. Results were considered significant for *p<0.05.
# [1] = 10 mg/kg/day Days 0-26 vs saline, day 28
# [2] = local injection 10 mg/kg/day Days 0-26 vs saline, capsule explanted day 28
compound,measurement,setting,value
Cl.Cl.O=c1cc(CN2CCOCC2)occ1OCCCCCSc1ccnc2cc(C(F)(F)F)ccc12 [EHT 1864 2HCl],capsule thickness (H&E staining),[1],decreased
same,collagen deposition (trichrome staining),[1],decreased
same,overall FBR,[1],significantly reduced
same,reduction in the activation of myofibroblasts in MSI capsules (aSMA immunostaining),[2],about 90%
same,"reduction of expression of immune cell-specific Rac2 in the FBR capsules (immunostaining, percent area positive)",[2],about 80%
